Measurements reported in patent US20260200923A1, “HETEROCYCLIC COMPOUNDS TARGETING THE NUDT5 PROTEIN” (Oxford University Innovation Limited, priority 2022, published 2026).
“Also recorded” adds a separate entry of the source.

What was measured:
MTHFD1^K56R cells = assay: growth of MTHFD1^K56R cells in adenosine-containing media; type: cell-based; conditions: for effect on adenosine toxicity / viability: adenosine-containing media, 72 h
Procedure: HAP1 (KBM7-derived, Horizon Discovery, C859), and HAP1 MTHFD1^KO, MTHFD1^K56R, and MTHFD1^K386E cell lines were cultured in Iscove's Modified Dulbecco's Medium (IMDM, Sigma), supplemented with 10% Fetal Bovine Serum (FBS, Sigma) and 1% Penicillin/Streptomycin (P/S, Sigma).
MTHFD1^KO cells in dialyzed FBS media were treated with a single nucleotide or folic acid metabolite for 72 hours. Cells were then stained with Hoechst, imaged, and counted using an Operetta (Perkin Elmer). For the AMPK activator studies, cells were stained with Hoechst, imaged, and counted using an Opera (Perkin Elmer). Similarly, MTHFD1^K56R cells in dialyzed FBS media were treated with adenosine for 72 hours. Cells were then stained with Hoechst, imaged, and counted using an Operetta (Perkin Elmer).

HAP-1 cells = assay: 6-thioguanine assay (CellTiter-Glo viability); type: cell-based; conditions: 0.2 μg/ml 6-thioguanine, 72 h; HAP1 (and NB4, FIG. 11)
Procedure: NB-4 and HAP1 cells (1000 cells/well in 40 uL) were seeded onto a 384-well plate containing compounds. DMSO or 0.2 μg/ml 6-thioguanine (A4882, Sigma-Aldrich) was added into respective wells. After 72 h incubation cell viability was measured by using CellTiter-Glo 2.0 Assay (G9242, Promega). Compounds in the 384-well plates were prepared by using Echo Acoustic Dispenser.

MTHFD1^K386E cells = assay: growth of MTHFD1^K386E cells with adenosine; type: cell-based; conditions: synthetase mutant cells
Procedure: HAP1 (KBM7-derived, Horizon Discovery, […]), and HAP1 MTHFD1^KO, MTHFD1^[…], and MTHFD1^[…] cell lines were cultured in Iscove's Modified Dulbecco's Medium (IMDM, Sigma), supplemented with 10% Fetal Bovine Serum (FBS, Sigma) and 1% Penicillin/Streptomycin (P/S, Sigma).

NUDT5-CRBN interaction = target: T1, NUDT5-CRBN interaction (Homo sapiens, UniProt Q96SW2+Q9UKK9); assay: NanoBRET ternary complex formation (protein-protein interaction) assay; type: cell-based; conditions: HEK293 cells, 4 h
T1 construct: expressed in transfected cells; host or cells: HEK293
Procedure: For NanoBRET protein-protein interaction assay, NanoBRET Nano-Glo Detection System (N1662, Promega) was used according to the manufacturer's instruction. In brief, 220,000 HEK293 cells/ml was seeded in a 6-well plate. After 6 h, N-terminal nanoLuc NUDT5 and Halo-tag CRBN were then transfected into the cells using Fugene HD transfection reagent (E2312, Promega). The transfected HEK293 (220,000 cells/ml) were then replated onto a 384-well plate containing compounds. After 4 h incubation, NanoLuc substrate was added into each well and the signals were measured by PHERAstar Microplate Reader.
(§1) Compounds were dispensed in the 384-well plates by using Echo Acoustic Dispenser.

NUDT5 [1] = target: T2, NUDT5 (Homo sapiens, UniProt Q9UKK9); assay: NUDT5 degradation by Western blot in HEK293 cells; type: cell-based; set-up: endogenous in cells; host or cells: HEK293 (also CRBN knock-out HEK293 for A13)
Procedure: For Western blots, proteins were separated on polyacrylamide gels with SDS running buffer (50 mM Tris, 380 mM Glycine, 7 mM SDS) and transferred to PVDF membranes. All membranes were then blocked with blocking buffer (5% w/v milk powder, BioRad) in TBST (50 mM Tris (tris(hydroxymethylaminomethane), 150 mM NaCl, 0.05% (v/v) Tween 20, adjusted to pH 7.6) Proteins were probed with antibodies against phospho-AMPK (50081S, 1:2000, Cell Signaling Technologies), AMPK (5832S, 1:2000, Cell Signaling Technologies), PML (ab179466, 1:1000, abeam), PARP8 (NBP213733, 1:1000, Novus Biologicals), ATF2/7 (82870, 1:1000, Cell Signaling Technologies), alpha-Tubulin (ab7291, 1:1000, Abeam), phospho-UBTF (ab182583, 1:1000, abeam), UBTF (HPA006385, 1:1000, Sigma), RBM38 (AV40862, 1:1000, Sigma), or NUDT5 (ab129172, 1:1000, abeam), detected by HRP (horse-radish peroxidase) conjugated donkey anti-rabbit IgG antibody (Pierce) or donkey anti-mouse antibody IgG antibody (Pierce) and visualized with Clarity ECL Western Blotting substrate (BioRad), according to provided protocol.

NUDT5 [2] = target: T2, NUDT5; assay: AMP-Glo catalytic assay, NUDT5; type: biochemical; conditions: 2 nM NUDT5, ADPr substrate, 20 minutes, mean±SD
Procedure: (§2) To identify alternative X groups, a screening exercise was performed. […] Inhibition activities of the compounds were determined using AMP-Glo system (Promega). The compounds were diluted from 50 μM to 0 μM in a final reaction containing 20 mM Hepes, 100 mM NaCl, 0.5 mM TCEP, 1 mM MgCl2 and 0.1% BSA, pH 7.4. The reactions were performed in 1536 well plate in […] reaction volume with 2 nM of NUDT5 and NUDT14, and […] of ADPr as the substrate. The final DMSO concentration was 0.5% for all reactions. NUDT5 reactions were incubated for 20 minutes while NUDT14 reactions were carried out for 1 hour at room temperature. […] The reactions were further incubated with the 4 μl of Detection solution for 1 hour at room temperature. Luminescence signals were then measured in PHERAstar FSX plate reader. Experiments were done in triplicate sets and data were analysed by GraphPad Prism 9. Data are represented as the mean±SD of three biological experiments: […]

NUDT14 = target: T3, NUDT14 (Homo sapiens, UniProt O95848); assay: AMP-Glo catalytic assay, NUDT14; type: biochemical
T3 sequence (O95848 1-222): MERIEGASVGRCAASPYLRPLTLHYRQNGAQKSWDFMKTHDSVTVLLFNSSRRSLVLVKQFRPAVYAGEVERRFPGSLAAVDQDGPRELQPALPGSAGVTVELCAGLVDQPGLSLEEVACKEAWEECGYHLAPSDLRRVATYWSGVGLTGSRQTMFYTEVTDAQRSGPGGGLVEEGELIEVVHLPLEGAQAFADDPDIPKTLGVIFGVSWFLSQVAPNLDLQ
Procedure: as §2

luciferase-tagged NUDT5 = target: T4, luciferase-tagged NUDT5 (Homo sapiens, UniProt Q9UKK9); assay: NanoBRET target engagement assay; type: cell-based; conditions: live cells, 2 h
T4 construct: expressed in transfected cells; host or cells: HEK293T
Procedure: For NanoBRET target engagement assay, intracellular TE Nano-Glo substrate/inhibitor (N2161, Promega) was used according to the manufacturer's instruction. In brief, 200,000 HEK293T cells/ml was seeded in a T-75 flask. N-terminal NanoLuciferse NUDT5 was reverse transfected into the cells using Fugene HD transfection reagent (E2312, Promega). After 24 h the transfected HEK293 (200,000 cells/ml) were replated onto a 384-well plate containing compounds. 2.5 nM NU008116a was used as the final tracer concentration. After 2 h, NanoLuc substrate and inhibitor was added into each well and the signals were measured by PHERAstar Microplate Reader.
as §1

Cn1c(=O)c2c(nc(N3CCNCC3)n2Cc2nnc(-c3ccc(Cl)c(Cl)c3)o2)n(C)c1=O [TH5427, reference compound]
effect on adenosine toxicity / viability (MTHFD1^K56R cells): did not affect the viability | rescue of 6-TG toxicity (HAP-1 cells): did not show a rescue; also recorded: neither the negative control nor TH5427 gave any significant effects

Nc1ncnc2c1ncn2[C@@H]1O[C@H](CO)[C@@H](O)[C@H]1O [adenosine]
effect of addition on proliferation (MTHFD1^K56R cells; cyclohydrolase mutant cells, 50 μM adenosine): caused a strong antiproliferative response | effect of addition on growth (MTHFD1^K386E cells): enhanced the growth

Cn1c(=O)c2c(nc(N3CCN(CC4CCN(c5ccc6c(c5)C(=O)N(C5CCC(=O)NC5=O)C6=O)CC4)CC3)n2Cc2nnc(-c3ccc(Cl)c(Cl)c3)o2)n(C)c1=O (stereo not drawn) [Compound 070, 7-((5-(3,4-dichlorophenyl)-1,3,4-oxadiazol-2-yl)methyl)-8-(4-((1-(2-(2,6-dioxopiperidin-3-yl)-1,3-dioxoisoindolin-5-yl)piperidin-4-yl)methyl)piperazin-1-yl)-1,3-dimethyl-3,7-dihydro-1H-purine-2,6-dione]
ternary complex formation between NUDT5 and CRBN (NUDT5-CRBN interaction): induced the ternary complex | NUDT5 degradation at 100 nM, 20 h (%) (NUDT5 [1]; 100 nM, 20 h): 39% | NUDT5 degradation (NUDT5 [1]; Western blot, FIG. 12A): reasonable NUDT5 degrader

C=CC(=O)N1CCC[C@@H](n2nc(-c3ccc(Oc4ccccc4)cc3)c3c(N)ncnc32)C1 [Ibrutinib, reference compound]
IC50 (NUDT5 [2]): 375 ± 12 nM | IC50 (NUDT14): 974 ± 26 nM

CN1C(=O)CCC(N2C(=O)c3ccc(N4CCN(CC5CCN(C(=O)N6CCN(c7nc8c(c(=O)n(C)c(=O)n8C)n7Cc7nnc(-c8ccc(Cl)c(Cl)c8)o7)CC6)CC5)CC4)cc3C2=O)C1=O (stereo not drawn) [dNUDT5nc, 7-((5-(3,4-dichlorophenyl)-1,3,4-oxadiazol-2-yl)methyl)-1,3-dimethyl-8-(4-(4-((4-(2-(1-methyl-2,6-dioxopiperidin-3-yl)-1,3-dioxoisoindolin-5-yl)piperazin-1-yl)methyl)piperidine-1-carbonyl)piperazin-1-yl)-3,7-dihydro-1H-purine-2,6-dione]
effect on adenosine toxicity / viability (MTHFD1^K56R cells): did not cause any effects | rescue of 6-TG toxicity (HAP-1 cells): neither the negative control nor TH5427 gave any significant effects | NUDT5 engagement / recruitment (luciferase-tagged NUDT5): engaged their cognate target NUDT5 in live cells
